Measured values: patent US20070032508A1, “Quinazoline derivatives as tyrosine kinase inhibitors” (priority 2003, published 2007)

What was measured:
[1] = target: T1, erbB2 in a MCF7 derived cell line (Clone 24 cells) (Homo sapiens, UniProt P04626); assay: Test (c) Clone 24 phospho-erbB2 cell assay; format: cell-based; details: Clone 24 cells (MCF7 transfected with full length erbB2), 4 hrs with compound; read-out: IC50 Test (c): Inhibition of erbB2 tyrosine kinase protein phosphorylation
T1 construct: a cell line that overexpresses full length wild type erbB2 protein; expressed in transfected cells; host or cells: MCF7 (breast carcinoma) cells, 'Clone 24'
T1 sequence (P04626 23-1255): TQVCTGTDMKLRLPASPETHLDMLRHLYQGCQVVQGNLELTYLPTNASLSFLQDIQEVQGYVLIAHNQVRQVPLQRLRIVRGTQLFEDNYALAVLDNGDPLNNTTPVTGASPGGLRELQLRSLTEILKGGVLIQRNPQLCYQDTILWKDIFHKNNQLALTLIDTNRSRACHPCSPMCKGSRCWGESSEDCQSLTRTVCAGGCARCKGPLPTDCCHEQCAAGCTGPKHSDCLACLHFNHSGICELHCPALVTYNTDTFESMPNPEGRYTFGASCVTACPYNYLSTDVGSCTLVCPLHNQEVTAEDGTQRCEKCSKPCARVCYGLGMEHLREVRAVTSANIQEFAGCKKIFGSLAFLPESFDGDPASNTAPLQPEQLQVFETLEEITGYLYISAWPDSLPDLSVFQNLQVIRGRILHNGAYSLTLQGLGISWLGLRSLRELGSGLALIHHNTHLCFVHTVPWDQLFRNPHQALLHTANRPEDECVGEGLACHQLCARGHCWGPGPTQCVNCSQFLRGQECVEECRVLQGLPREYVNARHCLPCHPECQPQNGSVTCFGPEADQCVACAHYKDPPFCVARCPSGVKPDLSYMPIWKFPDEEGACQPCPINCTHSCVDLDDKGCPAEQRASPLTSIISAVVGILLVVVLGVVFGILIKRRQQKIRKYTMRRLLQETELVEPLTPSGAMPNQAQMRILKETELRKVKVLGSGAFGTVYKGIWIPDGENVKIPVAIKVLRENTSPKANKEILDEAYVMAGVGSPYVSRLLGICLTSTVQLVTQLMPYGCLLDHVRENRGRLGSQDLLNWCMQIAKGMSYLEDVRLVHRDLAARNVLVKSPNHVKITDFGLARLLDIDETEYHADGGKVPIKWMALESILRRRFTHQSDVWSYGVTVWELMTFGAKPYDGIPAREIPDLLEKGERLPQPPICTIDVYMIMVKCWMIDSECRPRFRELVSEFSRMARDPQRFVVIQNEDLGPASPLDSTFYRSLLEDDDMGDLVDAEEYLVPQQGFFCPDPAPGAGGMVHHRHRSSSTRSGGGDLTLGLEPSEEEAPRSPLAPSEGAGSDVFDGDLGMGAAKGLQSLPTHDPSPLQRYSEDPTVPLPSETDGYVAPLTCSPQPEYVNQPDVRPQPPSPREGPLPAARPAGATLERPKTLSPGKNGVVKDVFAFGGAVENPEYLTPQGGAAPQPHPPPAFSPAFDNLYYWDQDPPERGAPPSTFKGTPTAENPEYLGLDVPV
Method: c) Clone 24 phospho-erbB2 Cell Assay
This immunofluorescence end point assay measures the ability of a test compound to inhibit the phosphorylation of erbB2 in a MCF7 (breast carcinoma) derived cell line which was generated by transfecting MCF7 cells with the full length erbB2 gene using standard methods to give a cell line that overexpresses full length wild type erbB2 protein (hereinafter ‘Clone 24’ cells).
Clone 24 cells were cultured in Growth Medium (phenol red free Dulbecco's modified Eagle's medium (DMEM) containing 10% foetal bovine serum, 2 mM glutamine and 1.2 mg/ml G418) in a 7.5% CO2 air incubator at 37° C. Cells were harvested from T75 stock flasks by washing once in PBS phosphate buffered saline, pH7.4, Gibco No. 10010-015) and harvested using 2 mls of Trypsin (1.25 mg/ml)/ethylaminediaminetetraacetic acid (EDTA) (0.8 mg/ml) solution. The cells were resuspended in Growth Medium. Cell density was measured using a haemocytometer and viability was calculated using Trypan Blue solution before being further diluted in Growth Medium and seeded at a density of 1×10^4 cells per well (in 100 ul) into clear bottomed 96 well plates (Packard, No. 6005182).
3 days later, Growth Medium was removed from the wells and replaced with 100 ul Assay Medium (phenol red free DMEM, 2 mM glutamine, 1.2 mg/ml G418) either with or without erbB inhibitor compound. Plates were returned to the incubator for 4 hrs and then 20 μl of 20% formaldehyde solution in PBS was added to each well and the plate was left at room temperature for 30 minutes. This fixative solution was removed with a multichannel pipette, 100 μl of PBS was added to each well and then removed with a multichannel pipette and then 50 μl PBS was added to each well. Plates were then sealed and stored for up to 2 weeks at 4° C.
Immunostaining was performed at room temperature. […]
The Fluorescence signal is each well was measured using an Acumen Explorer Instrument (Acumen Bioscience Ltd.), a plate reader that can be used to rapidly quantitate features of images generated by laser-scanning. […]

erbB2 tyrosine kinase = target: T2, erbB2 tyrosine kinase (Homo sapiens, UniProt P04626); assay: Test (a) protein tyrosine kinase phosphorylation assay, erbB2; format: biochemical; details: recombinant intracellular fragment, ATP at Km; read-out: IC50 Test (a): Inhibition of erbB2 tyrosine kinase protein phosphorylation
T2 construct: Recombinant intracellular fragments of EGFR, erbB2 and erbB4; made in house; host or cells: baculovirus/Sf21 insect cells (cleared lysate used)
T2 sequence (P04626 676-1255 limits assumed): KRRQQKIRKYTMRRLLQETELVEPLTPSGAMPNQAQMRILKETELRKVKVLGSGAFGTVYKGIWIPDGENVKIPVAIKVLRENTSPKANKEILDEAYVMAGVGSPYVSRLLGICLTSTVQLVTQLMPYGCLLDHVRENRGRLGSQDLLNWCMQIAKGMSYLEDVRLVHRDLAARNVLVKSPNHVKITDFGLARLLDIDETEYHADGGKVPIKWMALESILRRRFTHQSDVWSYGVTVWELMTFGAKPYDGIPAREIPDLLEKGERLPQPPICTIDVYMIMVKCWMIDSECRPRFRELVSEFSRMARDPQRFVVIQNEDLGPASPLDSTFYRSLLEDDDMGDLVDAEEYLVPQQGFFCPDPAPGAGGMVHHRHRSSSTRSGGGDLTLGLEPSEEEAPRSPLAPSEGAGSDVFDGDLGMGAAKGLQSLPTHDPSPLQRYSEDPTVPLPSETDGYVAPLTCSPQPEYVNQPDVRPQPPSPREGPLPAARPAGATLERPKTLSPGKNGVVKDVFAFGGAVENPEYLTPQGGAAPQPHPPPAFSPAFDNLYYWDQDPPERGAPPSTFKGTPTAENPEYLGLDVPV
Method: (§1) A) Protein Tyrosine Kinase Phosphorylation Assays
(§2) Recombinant intracellular fragments of EGFR, erbB2 and erbB4 (accession numbers X00588, X03363 and L07868 respectively) were cloned and expressed in the baculovirus/Sf21 system. Lysates were prepared from these cells by treatment with ice-cold lysis buffer (20 mM N-2-hydroxyethylpiperizine-N′-2-ethanesulfonic acid (HEPES) pH7.5, 150 mM NaCl, 10% glycerol, 1% Triton X-100, 1.5 mM MgCl2, 1 mM ethylene glycol-bis(β-aminoethyl ether) N′,N′,N′,N′-tetraacetic acid (EGTA), plus protease inhibitors and then cleared by centrifugation.
(§3) Constitutive kinase activity of these recombinant proteins was determined by their ability to phosphorylate a synthetic peptide (made up of a random co-polymer of Glutamic Acid, Alanine and Tyrosine in the ratio of 6:3:1). Specifically, Maxisorb™ 96-well immunoplates were coated with synthetic peptide (0.2 μg of peptide in a 200 μl phosphate buffered saline (PBS) solution and incubated at 4° C. overnight). Plates were washed in 50 mM HEPES pH 7.4 at room temperature to remove any excess unbound synthetic peptide. […]
(§4) The immobilised phospho-peptide product of the reaction was detected by immunological methods. […] After further washing, HRP activity in each well of the plate was measured […] using 22′-Azino-di-[3-ethylbenzthiazoline sulfonate (6)] diammonium salt crystals (ABTS™ from Roche) as a substrate.
(§5) Quantification of colour development and thus enzyme activity was achieved by the measurement of absorbance at 405 nm on a Molecular Devices ThermoMax microplate reader. Kinase inhibition for a given compound was expressed as an IC50 value. […] The range of phosphorylation was calculated from the positive (vehicle plus ATP) and negative (vehicle minus ATP) control values.

EGFR tyrosine kinase = target: T3, EGFR tyrosine kinase (Homo sapiens, UniProt P00533); assay: Test (a) protein tyrosine kinase phosphorylation assay, EGFR; format: biochemical; details: recombinant intracellular fragment, ATP at Km; read-out: IC50 Test (a): Inhibition of EGFR tyrosine kinase protein phosphorylation
T3 construct: Recombinant intracellular fragments of EGFR, erbB2 and erbB4; made in house; host or cells: baculovirus/Sf21 insect cells (cleared lysate used)
T3 sequence (P00533 669-1210 limits assumed): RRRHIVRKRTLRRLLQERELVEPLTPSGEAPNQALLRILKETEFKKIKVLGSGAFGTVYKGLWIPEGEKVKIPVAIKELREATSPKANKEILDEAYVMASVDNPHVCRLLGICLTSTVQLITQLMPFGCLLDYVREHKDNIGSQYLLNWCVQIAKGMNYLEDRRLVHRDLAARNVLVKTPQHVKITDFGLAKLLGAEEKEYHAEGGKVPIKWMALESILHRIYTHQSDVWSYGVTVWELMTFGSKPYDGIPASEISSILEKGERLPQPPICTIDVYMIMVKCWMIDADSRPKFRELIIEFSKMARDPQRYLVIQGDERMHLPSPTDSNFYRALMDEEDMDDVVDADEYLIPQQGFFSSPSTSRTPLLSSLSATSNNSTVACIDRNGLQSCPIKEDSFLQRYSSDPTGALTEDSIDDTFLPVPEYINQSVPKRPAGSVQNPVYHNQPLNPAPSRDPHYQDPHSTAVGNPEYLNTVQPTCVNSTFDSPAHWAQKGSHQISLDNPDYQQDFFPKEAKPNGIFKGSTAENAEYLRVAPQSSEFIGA
Method: as §1
This test measures the ability of a test compound to inhibit the phosphorylation of a tyrosine containing polypeptide substrate by EGFR tyrosine kinase enzyme.
as §2, §3, §4, §5

## CN(C)CC(=O)N1CCC(Oc2ccc3ncnc(Nc4ccc(OCc5ccccn5)c(Cl)c4)c3c2)CC1 [Example 8]
[1]
  IC50: 210 nM
erbB2 tyrosine kinase
  IC50: 2 nM
EGFR tyrosine kinase
  IC50: 39 nM

## CN(C)CC(=O)N1CCC(Oc2ccc3ncnc(Nc4ccc(OCc5cnccn5)c(Cl)c4)c3c2)CC1 [Example 9, N-[3-chloro-4-(pyrazin-2-ylmethoxy)phenyl]-6-({1-[(dimethylamino)acetyl]piperidin-4-yl}oxy)quinazolin-4-amine]
[1]
  IC50: 150 nM
erbB2 tyrosine kinase
  IC50: 7 nM
EGFR tyrosine kinase
  IC50: 21 nM

## CS(=O)(=O)N1CCC(COc2ccc3ncnc(Nc4ccc(OCc5ccccn5)c(Cl)c4)c3c2)C1 (stereo not drawn) [Example 14, N-[3-Chloro-4-(pyridin-2-ylmethoxy)phenyl]-6-{[1-(methylsulfonyl)pyrrolidin-3-yl]methoxy}quinazolin-4-amine]
[1]
  IC50: 4 nM
erbB2 tyrosine kinase
  IC50: 2 nM
EGFR tyrosine kinase
  IC50: 213 nM
